Assay results reported in US11407757B2, “Heterocycle compounds as Tyro3, Axl and MerTK (TAM) family of receptor tyrosine kinase inhibitors” (Development Center for Biotechnology, priority 2017, dated 2022).

Biological target: Axl kinase (Homo sapiens (Human), UniProt P30530)
Test: Axl kinase assay (AlphaScreen)
Assay type: biochemical
Details: activity level class

Sequence of Axl kinase (P30530 26-894): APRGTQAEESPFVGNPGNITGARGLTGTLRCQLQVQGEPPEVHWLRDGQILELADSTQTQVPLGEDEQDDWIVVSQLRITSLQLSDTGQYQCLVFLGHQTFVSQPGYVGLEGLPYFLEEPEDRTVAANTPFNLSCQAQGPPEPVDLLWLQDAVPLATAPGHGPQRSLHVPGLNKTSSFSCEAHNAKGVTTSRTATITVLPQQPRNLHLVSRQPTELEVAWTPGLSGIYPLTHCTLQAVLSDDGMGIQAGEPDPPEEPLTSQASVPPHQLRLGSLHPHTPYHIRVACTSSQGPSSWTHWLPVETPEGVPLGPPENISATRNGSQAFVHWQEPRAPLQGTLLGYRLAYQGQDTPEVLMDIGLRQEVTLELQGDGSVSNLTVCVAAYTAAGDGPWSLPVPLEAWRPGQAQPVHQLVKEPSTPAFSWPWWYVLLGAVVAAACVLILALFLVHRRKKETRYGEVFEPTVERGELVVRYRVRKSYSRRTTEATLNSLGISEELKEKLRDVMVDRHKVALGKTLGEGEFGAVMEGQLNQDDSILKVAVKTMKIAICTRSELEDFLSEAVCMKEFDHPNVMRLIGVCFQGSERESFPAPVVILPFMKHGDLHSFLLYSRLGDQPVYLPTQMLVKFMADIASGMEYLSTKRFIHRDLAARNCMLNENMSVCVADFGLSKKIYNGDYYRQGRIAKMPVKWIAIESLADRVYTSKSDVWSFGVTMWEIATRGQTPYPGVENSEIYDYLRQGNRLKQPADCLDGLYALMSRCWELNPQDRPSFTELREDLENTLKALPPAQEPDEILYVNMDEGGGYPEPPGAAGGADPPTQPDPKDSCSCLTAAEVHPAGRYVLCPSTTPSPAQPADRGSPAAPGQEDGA

Row | SMILES | IC50 [nM]
1 | COCCOc1nc(Nc2ccc(CN3CCN(C)CC3)cc2)nc2[nH]cc(-c3ccc(NS(=O)(=O)c4cc(F)ccc4F)cc3)c12 [Compound 1, 2,5-difluoro-N-(4-(4-(2-methoxyethoxy)-2-((4-((4-methylpiperazin-1-yl)methyl)phenyl)amino)-7H-pyrrolo[2,3-d]pyrimidin-5-yl)phenyl)benzene-sulfonamide] | < 30
2 | COCCOc1nc(Nc2ccc(CN3CCC(C)CC3)cc2)nc2[nH]cc(-c3ccc(NS(=O)(=O)c4cc(F)ccc4F)cc3)c12 [Compound 3, 2,5-difluoro-N-(4-(4-(2-methoxyethoxy)-2-((4-((4-methylpiperidin-1-yl)methyl)phenyl)amino)-7H-pyrrolo[2,3-d]pyrimidin-5-yl)phenyl)benzene-sulfonamide] | < 30
3 | COc1nc(Nc2ccc(CN3CCC(C)CC3)cc2)nc2[nH]cc(-c3ccc(NS(C)(=O)=O)cc3)c12 [Compound 4, N-(4-(4-methoxy-2-((4-((4-methylpiperidin-1-yl)methyl)phenyl)amino)-7H-pyrrolo[2,3-d]pyrimidin-5-yl)phenyl)methane-sulfonamide] | < 30
4 | COc1nc(Nc2ccc(CN3CCC(C)CC3)cc2)nc2[nH]cc(-c3ccc(S(=O)(=O)N(C)C)cc3)c12 [Compound 5, 4-(4-methoxy-2-((4-((4-methylpiperidin-1-yl)methyl)phenyl)amino)-7H-pyrrolo[2,3-d]pyrimidin-5-yl)-N,N-dimethylbenzene-sulfonamide] | < 30
5 | COCCOc1nc(Nc2ccc(CN3CCN(C)CC3)cc2)nc2[nH]cc(-c3ccc(OCc4cc(C)ccn4)cc3F)c12 [Compound 9, 5-(2-fluoro-4-((4-methylpyridin-2-yl)methoxy)phenyl)-4-(2-methoxyethoxy)-N-(4-((4-methylpiperazin-1-yl)methyl)phenyl)-7H-pyrrolo[2,3-d]pyrimidin-2-amine] | < 30
6 | COCCOc1nc(Nc2ccc(CN3CCN(C)CC3)cc2)nc2[nH]cc(-c3ccc(OCc4ncccc4C)cc3F)c12 [Compound 11, 5-(2-fluoro-4-((3-methylpyridin-2-yl)methoxy)phenyl)-4-(2-methoxyethoxy)-N-(4-((4-methylpiperazin-1-yl)methyl)phenyl)-7H-pyrrolo[2,3-d]pyrimidin-2-amine] | < 30
7 | COc1nc(Nc2ccc(CN3CCN(C)CC3)cc2)nc2[nH]cc(-c3ccc(O)cc3)c12 [Compound 17, 4-(4-methoxy-2-((4-((4-methylpiperazin-1-yl)methyl)phenyl)amino)-7H-pyrrolo [2,3-d]pyrimidin-5-yl)phenol] | < 30
8 | CCN1CCN(Cc2ccc(Nc3nc(OCCOC)c4c(-c5ccc(OCc6ccccn6)cc5F)c[nH]c4n3)cc2)CC1 [Compound 19, N-(4-((4-ethylpiperazin-1-yl)methyl)phenyl)-5-(2-fluoro-4-(pyridin-2-ylmethoxy)phenyl)-4-(2-methoxyethoxy)-7H-pyrrolo[2,3-d]pyrimidin-2-amine] | < 30
9 | COc1nc(Nc2ccc(CN3CCC(C)CC3)cc2)nc2[nH]cc(-c3ccc(O)cc3)c12 [Compound 28, 4-(4-methoxy-2-((4-((4-methylpiperidin-1-yl)methyl)phenyl)amino)-7H-pyrrolo[2,3-d]pyrimidin-5-yl)phenol] | < 30
10 | COCCOc1nc(Nc2ccc(CN3CCC(C)CC3)cc2)nc2[nH]cc(-c3ccc(OCc4ncccn4)cc3F)c12 [Compound 34, 5-(2-fluoro-4-(pyrimidin-2-ylmethoxy)phenyl)-4-(2-methoxyethoxy)-N-(4-((4-methylpiperidin-1-yl)methyl)phenyl)-7H-pyrrolo[2,3-d]pyrimidin-2-amine] | < 30
11 | COc1nc(Nc2ccc(CN3CCN(C)CC3)cc2)nc2[nH]cc(-c3ccc(F)cc3)c12 [Compound 38, 5-(4-fluorophenyl)-4-methoxy-N-(4-((4-methylpiperazin-1-yl)methyl)phenyl)-7H-pyrrolo[2,3-d]pyrimidin-2-amine] | < 30
12 | CCN1CCN(Cc2ccc(Nc3nc(OCCOC)c4c(-c5ccc(OCc6ncccn6)cc5F)c[nH]c4n3)cc2)CC1 [Compound 39, N-(4-((4-ethylpiperazin-1-yl)methyl)phenyl)-5-(2-fluoro-4-(pyrimidin-2-ylmethoxy)phenyl)-4-(2-methoxyethoxy)-7H-pyrrolo[2,3-d]pyrimidin-2-amine] | < 30
13 | CCN1CCN(Cc2ccc(Nc3nc(OC)c4c(-c5ccc(F)cc5F)c[nH]c4n3)cc2)CC1 [Compound 45, 5-(2,4-difluorophenyl)-N-(4-((4-ethylpiperazin-1-yl)methyl)phenyl)-4-methoxy-7H-pyrrolo [2,3-d]pyrimidin-2-amine] | < 30
14 | CCN1CCN(Cc2ccc(Nc3nc(OC)c4c(-c5ccc(O)cc5)c[nH]c4n3)cc2)CC1 [Compound 48, 4-(2-((4-((4-ethylpiperazin-1-yl)methyl)phenyl)amino)-4-methoxy-7H-pyrrolo[2,3-d]pyrimidin-5-yl)phenol] | < 30
15 | COCCOc1nc(Nc2ccc(CN3CCN(C)CC3)cc2)nc2[nH]cc(-c3ccc(F)c(Cl)c3)c12 [Compound 50, 5-(3-chloro-4-fluorophenyl)-4-(2-methoxyethoxy)-N-(4-((4-methylpiperazin-1-yl)methyl)phenyl)-7H-pyrrolo[2,3-d]pyrimidin-2-amine] | < 30
16 | CN1CCN(Cc2ccc(Nc3nc(OCC4CCCO4)c4c(-c5ccc(F)cc5F)c[nH]c4n3)cc2)CC1 (stereo not drawn) [Compound 52, 5-(2,4-difluorophenyl)-N-(4-((4-methylpiperazin-1-yl)methyl)phenyl)-4-((tetrahydrofuran-2-yl)methoxy)-7H-pyrrolo[2,3-d] pyrimidin-2-amine] | < 30
17 | COCCOc1nc(Nc2ccc(CN3CCN(C)CC3)cc2)nc2[nH]cc(-c3ccc(F)cc3F)c12 [Compound 53, 5-(2,4-difluorophenyl)-4-(2-methoxyethoxy)-N-(4-((4-methylpiperazin-1-yl)methyl)phenyl)-7H-pyrrolo[2,3-d] pyrimidin-2-amine] | < 30
18 | CCNc1nc(Nc2ccc(CN3CCN(C)CC3)cc2)nc2[nH]cc(-c3ccc(F)cc3F)c12 [Compound 54, 5-(2,4-difluorophenyl)-N4-ethyl-N2-(4-((4-methylpiperazin-1-yl)methyl)phenyl)-7H-pyrrolo[2,3-d] pyrimidine-2,4-diamine] | < 30
19 | CN1CCN(Cc2ccc(Nc3nc(OC4CCCC4)c4c(-c5ccc(F)cc5F)c[nH]c4n3)cc2)CC1 [Compound 55, 4-(cyclopentyloxy)-5-(2,4-difluorophenyl)-N-(4-((4-methylpiperazin-1-yl)methyl)phenyl)-7H-pyrrolo[2,3-d]pyrimidin-2-amine] | < 30
20 | CCOc1nc(Nc2ccc(CN3CCN(C)CC3)cc2)nc2[nH]cc(-c3ccc(F)cc3F)c12 [Compound 59, 5-(2,4-difluorophenyl)-4-ethoxy-N-(4-((4-methylpiperazin-1-yl)methyl)phenyl)-7H-pyrrolo[2,3-d] pyrimidin-2-amine] | < 30
21 | COCC(C)Oc1nc(Nc2ccc(CN3CCN(C)CC3)cc2)nc2[nH]cc(-c3ccc(F)cc3F)c12 (stereo not drawn) [Compound 63, 5-(2,4-difluorophenyl)-4-((1-methoxypropan-2-yl)oxy)-N-(4-((4-methylpiperazin-1-yl)methyl)phenyl)-7H-pyrrolo[2,3-d]pyrimidin-2-amine] | < 30
22 | COCCOc1nc(Nc2ccc(CN3CCN(C)CC3)cc2)nc2[nH]cc(-c3ccc4nc(C)oc4c3)c12 [Compound 64, 4-(2-methoxyethoxy)-5-(2-methylbenzo[d]oxazol-6-yl)-N-(4-((4-methylpiperazin-1-yl)methyl)phenyl)-7H-pyrrolo[2,3-d] pyrimidin-2-amine] | < 30
23 | COCCOc1nc(Nc2ccc(CN3CCN(C)CC3)cc2)nc2[nH]cc(-c3ccc(OCn4ccccc4=O)cc3F)c12 [Compound 68, 1-((3-fluoro-4-(4-(2-methoxyethoxy)-2-((4-((4-methylpiperazin-1-yl)methyl)phenyl)amino)-7H-pyrrolo[2,3-d]pyrimidin-5-yl)phenoxy)methyl) pyridin-2(1H)-one] | < 30
24 | CC(C)Oc1nc(Nc2ccc(CN3CCN(C)CC3)cc2)nc2[nH]cc(-c3ccc(F)cc3F)c12 [Compound 69, 5-(2,4-difluorophenyl)-4-isopropoxy-N-(4-((4-methylpiperazin-1-yl)methyl)phenyl)-7H-pyrrolo[2,3-d]pyrimidin-2-amine] | < 30
25 | CN1CCN(Cc2ccc(Nc3nc(NC4CCOCC4)c4c(-c5ccc(F)cc5F)c[nH]c4n3)cc2)CC1 [Compound 75, 5-(2,4-difluorophenyl)-N2-(4-((4-methylpiperazin-1-yl)methyl)phenyl)-N4-(tetrahydro-2H-pyran-4-yl)-7H-pyrrolo[2,3-d]pyrimidine-2,4-diamine] | < 30
26 | CN1CCN(Cc2ccc(Nc3nc(OCC4CCCO4)c4c(-c5ccc(F)c(Cl)c5)c[nH]c4n3)cc2)CC1 (stereo not drawn) [Compound 77, 5-(3-chloro-4-fluorophenyl)-N-(4-((4-methylpiperazin-1-yl)methyl)phenyl)-4-((tetrahydrofuran-2-yl)methoxy)-7H-pyrrolo[2,3-d]pyrimidin-2-amine] | < 30
27 | COCCOc1nc(Nc2ccc(CN3CCN(C)CC3)cc2)nc2[nH]cc(-c3ccc(S(=O)(=O)N(C)C)cc3)c12 [Compound 79, 4-(4-(2-methoxyethoxy)-2-((4-((4-methylpiperazin-1-yl)methyl)phenyl)amino)-7H-pyrrolo[2,3-d]pyrimidin-5-yl)-N,N-dimethylbenzene-sulfonamide] | < 30
28 | COCCOc1nc(Nc2ccc(CN(C)C)cc2)nc2[nH]cc(-c3ccc(F)cc3F)c12 [Compound 80, 5-(2,4-difluorophenyl)-N-(4-((dimethylamino)methyl)phenyl)-4-(2-methoxyethoxy)-7H-pyrrolo[2,3-d]pyrimidin-2-amine] | < 30
29 | COCCOc1nc(Nc2ccc(CN3CCN(C)CC3)cc2)nc2[nH]cc(-c3ccc(F)cc3)c12 [Compound 85, 5-(4-fluorophenyl)-4-(2-methoxyethoxy)-N-(4-((4-methylpiperazin-1-yl)methyl)phenyl)-7H-pyrrolo[2,3-d]pyrimidin-2-amine] | < 30
30 | COCCOc1nc(Nc2ccc(CN3CCN(C)CC3)cc2)nc2[nH]cc(-c3ccc(S(=O)(=O)N(C)C)cc3F)c12 [Compound 91, 3-fluoro-4-(4-(2-methoxyethoxy)-2-((4-((4-methylpiperazin-1-yl)methyl)phenyl)amino)-7H-pyrrolo[2,3-d]pyrimidin-5-yl)-N,N-dimethylbenzene-sulfonamide] | < 30
